Columns and labels:
Type in all cases: binding
Details in all cases: Compound Concentration 10 µM
panel of 442 kinases [1] = molecular target: T1, panel of 442 kinases (Homo sapiens, UniProt P24941)
T1 construct: purchased KINOMEscan
Excerpt: (§1) We assessed the selectivity of members of this scaffold using the KINOMEscan methodology across a near comprehensive panel of 442 kinases [[18,27]].

panel of 442 kinases [2] = molecular target: T2, panel of 442 kinases (Homo sapiens, UniProt O75460)
T2 construct: purchased KINOMEscan
T2 sequence (O75460 19-977): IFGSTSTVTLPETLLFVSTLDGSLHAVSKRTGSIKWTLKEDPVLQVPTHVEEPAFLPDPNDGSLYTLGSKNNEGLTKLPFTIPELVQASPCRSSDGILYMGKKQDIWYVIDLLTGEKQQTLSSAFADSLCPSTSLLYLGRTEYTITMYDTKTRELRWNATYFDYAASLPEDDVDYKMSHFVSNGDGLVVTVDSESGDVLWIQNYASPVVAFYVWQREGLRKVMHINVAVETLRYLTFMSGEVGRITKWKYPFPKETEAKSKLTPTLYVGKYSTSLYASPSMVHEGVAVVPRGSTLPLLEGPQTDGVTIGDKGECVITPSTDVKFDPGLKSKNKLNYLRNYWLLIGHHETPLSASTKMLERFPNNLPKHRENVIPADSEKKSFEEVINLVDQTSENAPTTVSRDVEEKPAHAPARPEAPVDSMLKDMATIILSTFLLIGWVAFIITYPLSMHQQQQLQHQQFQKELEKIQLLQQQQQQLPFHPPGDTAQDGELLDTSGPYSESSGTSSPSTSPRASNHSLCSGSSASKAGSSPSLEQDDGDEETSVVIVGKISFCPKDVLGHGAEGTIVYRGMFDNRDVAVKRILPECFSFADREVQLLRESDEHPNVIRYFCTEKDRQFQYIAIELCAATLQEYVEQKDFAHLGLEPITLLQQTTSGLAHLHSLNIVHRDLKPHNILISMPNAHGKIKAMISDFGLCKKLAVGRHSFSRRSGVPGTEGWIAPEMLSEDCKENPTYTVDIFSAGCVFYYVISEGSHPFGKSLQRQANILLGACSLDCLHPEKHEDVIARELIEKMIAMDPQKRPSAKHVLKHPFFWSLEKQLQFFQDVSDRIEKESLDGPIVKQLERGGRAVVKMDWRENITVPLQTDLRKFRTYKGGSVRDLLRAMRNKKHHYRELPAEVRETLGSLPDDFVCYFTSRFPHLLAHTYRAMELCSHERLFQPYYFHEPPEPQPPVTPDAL
Excerpt: as §1

panel of 442 kinases [3] = molecular target: T3, panel of 442 kinases (Homo sapiens, UniProt P31751)
T3 construct: purchased KINOMEscan
T3 sequence (P31751 whole entry): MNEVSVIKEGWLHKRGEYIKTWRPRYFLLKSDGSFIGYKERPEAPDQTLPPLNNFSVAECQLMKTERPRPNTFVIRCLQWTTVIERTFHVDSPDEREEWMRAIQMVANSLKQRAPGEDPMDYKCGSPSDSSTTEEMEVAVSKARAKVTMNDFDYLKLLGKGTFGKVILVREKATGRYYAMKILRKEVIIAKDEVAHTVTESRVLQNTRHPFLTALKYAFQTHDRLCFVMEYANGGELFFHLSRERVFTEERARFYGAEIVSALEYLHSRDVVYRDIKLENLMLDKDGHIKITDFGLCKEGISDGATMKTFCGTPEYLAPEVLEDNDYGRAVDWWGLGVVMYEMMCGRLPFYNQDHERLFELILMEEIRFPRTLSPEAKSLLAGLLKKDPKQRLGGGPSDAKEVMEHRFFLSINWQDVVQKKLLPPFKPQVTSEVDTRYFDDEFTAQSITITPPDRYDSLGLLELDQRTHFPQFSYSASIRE
Excerpt: as §1

| SMILES | KINOMEscan: CDK2 (panel of 442 kinases [1]) | KINOMEscan: ERN1 (panel of 442 kinases [2]) | KINOMEscan: AKT2 (panel of 442 kinases [3]) |
| --- | --- | --- | --- |
| COc1cc(C(=O)N2CCC(N3CCN(C)CC3)CC2)ccc1Nc1ncc2c(n1)N1CCc3cccc(c31)C(=O)N2C [Compound 24] | 95 |  |  |
| CCOc1cc(C(=O)N2CCC(N3CCN(C)CC3)CC2)ccc1Nc1ncc2c(n1)N(C1CCCC1)c1ccccc1C(=O)N2C [Compound 26] | 100 | 87 | 100 |
| COc1cc(C(=O)N2CCC(N3CCN(C)CC3)CC2)ccc1Nc1ncc2c(n1)N(C1CCCC1)c1ccccc1C(=O)N2C [Compound 25, 11-cyclopentyl-2-((2-methoxy-4-(4-(4-methylpiperazin-1-yl)piperidine-1-carbonyl)phenyl)amino)-5-methyl-5H-benzo[e]pyrimido[5,4-b][1,4]diazepin-6(11H)-one] | 96 | 96 | 100 |
| COc1cc(C(=O)N2CCC(N3CCN(C)CC3)CC2)ccc1Nc1ncc2c(n1)N(C)c1ccccc1C(=O)N2C [15 (LRRK2-IN-1)] | 100 | 59 | 100 |

Source: publication PMC3914206
